# Measurements as given in the supplement of paper PMC7224384.
# Key:
# MDA-MB-453 [1] = test: drug sensitivity score (DSS), single agent (DSS (weighted AUC score)); higher = more sensitive (stronger viability decrease); extreme values may be limits of the assay; settings: BLU9931 0 nM; 72 h
# Method in brief: (§1)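 Compounds from the FIMM Oncology set were predispensed in singlicate at five 10-fold dilutions (10,000-fold range) on 384-well plates. Each well then received 2000 MDA-MB-453 cells in medium with or without an FGFR4 inhibitor (100 nM final) and was kept at 37 °C, 5% CO2. Cellular ATP was read with CellTiterGlo 2.0 after 72 h and normalised per plate to percent viability from control wells. The drug sensitivity score is a weighted area under a four-parameter logistic fit.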
# MDA-MB-453 [2] = test: drug sensitivity score (DSS), in combination with BLU9931 (DSS (weighted AUC score)); higher = more sensitive (stronger viability decrease); extreme values may be limits of the assay; settings: BLU9931 100 nM; 72 h
# Method in brief: as §1
SMILES,drug sensitivity score (MDA-MB-453 [1]),drug sensitivity score (MDA-MB-453 [2])
C=CC(=O)Nc1cccc(Oc2nc(Nc3ccc(N4CCN(C)CC4)cc3)nc3ccsc23)c1 [Olmutinib],0.7,0.7
COc1ccc(C[C@H](NC(=O)[C@H](C)NC(=O)CN2CCOCC2)C(=O)N[C@@H](Cc2ccccc2)C(=O)C2(C)CO2)cc1 (stereo in doubt) [ONX-0914],14.7,13.8
CC[C@@H]1[C@H](F)C(=O)N[C@@H]1COc1nccc2cc(C(N)=O)c(OC)cc12,2.9,0.4
O=C(Nc1cccc(Nc2ncc(Br)c(NCCc3cnc[nH]3)n2)c1)N1CCCC1 [BX-912],4.5,3.8
Cc1ccc(NS(=O)(=O)c2cccc(C#N)c2)c2[nH]cc(C#N)c12 [E7820],3.3,1.1
Cn1nccc1Nc1nccc(-c2ccn([C@H](CO)c3ccc(Cl)c(F)c3)c(=O)c2)n1 [Ravoxertinib],6.9,5.6
CO[C@@H]1[C@H](N(C)C(=O)c2ccccc2)C[C@H]2O[C@]1(C)n1c3ccccc3c3c4c(c5c6ccccc6n2c5c31)C(=O)NC4 [Midostaurin],7.3,4.8
Nc1ncnc2c1c(COc1cccc(Cl)c1)nn2C1CCOCC1,0.9,0.9
CC(=O)O[C@]1(C(C)=O)CC[C@H]2[C@@H]3C=C(C)C4=CC(=O)CC[C@]4(C)[C@H]3CC[C@@]21C [Megestrol acetate],2.2,0
C[C@]1(O)C[C@@H](c2nc(-c3ccc4ccc(-c5ccccc5)nc4c3)c3c(N)nccn32)C1 [Linsitinib],3.6,1
Oc1ccc2c(c1)CC[C@H](c1ccccc1)[C@@H]2c1ccc(OCCN2CCCC2)cc1 [Lasofoxifene],0.7,0.2
CC[C@@H]1C(=O)OC[C@@H]1Cc1cncn1C [Pilocarpine],1.2,0.2
CN(C)Cc1c(C(=O)NCCOc2ccc(C(=O)NO)cc2)oc2ccccc12 [Abexinostat],22.6,22.3
O=C1NC(=O)[C@@H](c2cn3c4c(cccc24)CCC3)[C@@H]1c1c[nH]c2ccccc12 [Tivantinib],4.4,2
CC(=O)OC[C@H]1O[C@@H]([S-])[C@H](OC(C)=O)[C@@H](OC(C)=O)[C@@H]1OC(C)=O.CCP(CC)CC.[Au+] [Auranofin],8.9,8.8
Cn1cc(CNCC2CCN(c3ncc(C(=O)NO)cn3)CC2)c2ccccc21 [Quisinostat],22.4,21.3
CN(C)C(=O)c1ccc(S(=O)(=O)c2ccc(NC(=O)[C@@](C)(O)C(F)(F)F)c(Cl)c2)cc1 [AZD7545],0.1,0.2
CC(C)Cn1cnc2c(N)nc3ccccc3c21 [Imiquimod],0,0
Cn1ncc(Cl)c1-c1cc(C(=O)N[C@H](CN)Cc2cccc(F)c2)sc1Cl [Afuresertib],7.9,8.4
CC[C@@H](C(=O)[C@@H](C)[C@@H](O)[C@H](C)[C@@H]1O[C@@H]([C@@H](CC)C(=O)O)CC[C@@H]1C)[C@H]1O[C@]2(C=C[C@@H](O)[C@]3(CC[C@@](C)([C@H]4CC[C@](O)(CC)[C@H](C)O4)O3)O2)[C@H](C)C[C@@H]1C [Salinomycin],6.8,3.2
CNC(=O)c1cc(Oc2ccc(NC(=O)Nc3ccc(Cl)c(C(F)(F)F)c3)cc2)ccn1 [Sorafenib],0,0
COCCOc1cnc2ccn([C@H](C)c3nnc4c(F)cc(-c5cnn(C)c5)cn34)c(=O)c2c1 [AMG-337],0,0
CN(C)CCOc1ccc(/C(=C(/CCCl)c2ccccc2)c2ccccc2)cc1 [Toremifene],6,4.1
CCC(C)(C)C(=O)O[C@H]1C[C@@H](C)C=C2C=C[C@H](C)[C@H](CC[C@@H]3C[C@@H](O)CC(=O)O3)[C@H]21 [Simvastatin],0,0.1
Cc1ccc(NC(=O)c2ccc(CN3CCN(C)CC3)cc2)cc1Nc1nccc(-c2cccnc2)n1 [Imatinib],0.9,0.1
CO[C@H](C(=O)[C@@H](O)[C@@H](C)O)[C@@H]1Cc2cc3cc(O[C@H]4C[C@@H](O[C@@H]5C[C@@H](O)[C@H](O)[C@@H](C)O5)[C@H](O)[C@@H](C)O4)c(C)c(O)c3c(O)c2C(=O)[C@H]1O[C@H]1C[C@@H](O[C@@H]2C[C@@H](O)[C@@H](O[C@@H]3C[C@](C)(O)[C@H](O)[C@@H](C)O3)[C@@H](C)O2)[C@H](O)[C@@H](C)O1 [Plicamycin],15.7,15.7

SMILES,drug sensitivity score (MDA-MB-453 [1]),drug sensitivity score (MDA-MB-453 [2])
CN(C)c1cc2c(cc1Sc1nc3c(N)nccc3n1CCNCC(C)(C)C)OCO2 [CUDC-305],17.6,15.9
O=c1[nH]cc(F)c(=O)[nH]1 [Fluorouracil],2.1,0.1
N[C@@H]1CCCN(c2c(/C=C3\SC(=O)NC3=O)cccc2-c2ccccc2)C1 [AZD1208],0.3,0.1
O=C(Nc1nc2cccc(-c3ccc(CN4CCS(=O)(=O)CC4)cc3)n2n1)C1CC1 [Filgotinib],2.9,2.5
O=C(/C=C\n1cnc(-c2cc(C(F)(F)F)cc(C(F)(F)F)c2)n1)NNc1cnccn1 [Selinexor],9.6,9.5
COc1cc2nccc(Oc3ccc(NC(=O)C4(C(=O)Nc5ccc(F)cc5)CC4)cc3)c2cc1OC [Cabozantinib],1.3,1.6
CNc1ncc2cc(-c3cc(NC(=O)NCCC(C)(C)C)c(F)cc3C)c(C)nc2n1,6.3,3.8
C=C1C[C@@H]2CC[C@@]34C[C@H]5O[C@H]6[C@@H](O3)[C@H]3O[C@H](CC[C@@H]3O[C@H]6[C@H]5O4)CC(=O)C[C@@H]3[C@@H](OC)[C@@H](C[C@H](O)CN)O[C@H]3C[C@H]3O[C@@H](CC[C@@H]1O2)C[C@@H](C)C3=C [Eribulin],15.5,13.4
CN(Cc1cnc2nc(N)nc(N)c2n1)c1ccc(C(=O)N[C@@H](CCC(=O)O)C(=O)O)cc1 [Methotrexate],1,0
C[C@H]1Oc2cc(cnc2N)-c2c(nn(C)c2C#N)CN(C)C(=O)c2ccc(F)cc21,0,2.1
O=C(Nc1cnn2ccc(N3CCC[C@@H]3c3cc(F)ccc3F)nc12)N1CC[C@H](O)C1 [Larotrectinib],0.4,0
O=C(c1ccc(OCCN2CCCCC2)cc1)c1c(-c2ccc(O)cc2)sc2cc(O)ccc12 [Raloxifene],2.4,2.5
CN1CCN(c2cc(C(=O)Nc3ccc4c(c3)-c3c(c(C(N)=O)nn3-c3ccc(F)cc3)CC4)c(Cl)cn2)CC1 [PHA 408],4.9,3.4
Nc1nc(F)nc2c1ncn2[C@@H]1O[C@H](CO)[C@@H](O)[C@@H]1O [Fludarabine],0,0
CN1CCN(c2ccc3nc(-c4c(N)c5c(F)cccc5[nH]c4=O)[nH]c3c2)CC1 [Dovitinib],0,0
Nc1nc(Cl)nc2c1ncn2[C@H]1C[C@H](O)[C@@H](CO)O1 [Cladribine],0,0
CC(C)C[C@H](NC(=O)[C@@H](COC(C)(C)C)NC(=O)[C@H](Cc1ccc(O)cc1)NC(=O)[C@H](CO)NC(=O)[C@H](Cc1c[nH]c2ccccc12)NC(=O)[C@H](Cc1cnc[nH]1)NC(=O)[C@@H]1CCC(=O)N1)C(=O)N[C@@H](CCCNC(=N)N)C(=O)N1CCC[C@H]1C(=O)NNC(N)=O [Goserelin],0,0
COc1cc(Nc2ncc3c(n2)-c2ccc(Cl)cc2C(c2c(F)cccc2OC)=NC3)ccc1C(=O)O [Alisertib],0,1.7
CC(C)C[C@@H](C(=O)N[C@H](C(=O)OC1CCCC1)c1ccccc1)[C@H](O)C(=O)NO [Tosedostat],9.4,10.1
Cn1cc(-c2ccc(F)c(C(F)(F)F)c2)nc1C1CCN(c2ncnc3[nH]ncc23)CC1,1.8,3.9
C[C@]1(c2nc3c(C(N)=O)cccc3[nH]2)CCCN1 [Veliparib],1.6,2.9
CO[C@H]1C[C@@H]2CC[C@@H](C)[C@@](O)(O2)C(=O)C(=O)N2CCCC[C@H]2C(=O)O[C@H]([C@H](C)C[C@@H]2CC[C@@H](OCCO)[C@H](OC)C2)CC(=O)[C@H](C)/C=C(\C)[C@@H](O)[C@@H](OC)C(=O)[C@H](C)C[C@H](C)/C=C/C=C/C=C/1C [Everolimus],9.5,13.6
CCNC(=O)C[C@@H]1N=C(c2ccc(Cl)cc2)c2cc(OC)ccc2-n2c(C)nnc21 [Molibresib],10,9.8
COc1cc(C(=O)O)ccc1NC(=O)[C@@H]1N[C@@H](CC(C)(C)C)[C@](C#N)(c2ccc(Cl)cc2F)[C@H]1c1cccc(Cl)c1F [Idasanutlin],1.1,0
COc1cc2ncnc(Oc3cccc(NC(=O)Nc4cc(C(C)(C)C(F)(F)F)on4)c3)c2cc1OC,5.1,3.2
